# How the values were obtained:
# [1] = test system: mosquito larvae (Aedes albopictus) cell line; details: Watts et al. 2003; cited from earlier work
# [2] = test system: Lambdina fiscellaria (hemlock looper) larvae; test: Dietary rugulosin in artificial diet, hemlock looper larvae; type: in vivo; details: 1 week
# Protocol: The toxicity of an endophyte toxin on a pest such as hemlock looper is optionally tested according to the following method. The toxin to be tested is incorporated into an artificial diet suitable for pest growth. Artificial diet is prepared in individual cups, containing toxin concentrations of 5 micromolar, 10 micromolar, 25 micromolar, 50 micromolar and 100 micromolar. One 3rd instar insect is added to each of 75 cups per dilution and incubated in a growth chamber under appropriate conditions such as at 22 C, 55% relative humidity with 16 h light/day. After 4 days, the insects are frozen, weighed and their head capsules measured. A reduction in head capsule size (eg. width) or weight compared to a control sample is indicative of the presence of a toxin. One skilled in the art would understand that this method can be modified to test different concentrations of toxin and that the conditions can be modified to test a variety of different pests.
# Lambdina fiscellaria eggs (hemlock looper) were purchased from Forestry Canada in three lots. The eggs were incubated at room temperature for 10 d until larvae emerged. Larvae from each batch emerged within two days of each other and were immediately put on diet in cups as above. […] After 1 week on the test diets, the larvae were frozen, weighed and head capsule width determined.
# spruce budworm larvae = details: Miller et al. 2002; cited from earlier work
# [3] = test system: ovarian cells of the fall armyworm, Spodoptera frugiperda; details: Watts et al. 2003; cited from earlier work
# [4] = test system: Zeiraphera canadensis larvae (spruce budmoth); test: Dietary rugulosin in artificial diet, wild collected spruce budmoth larvae; type: in vivo
# Protocol: Zeiraphera canadensis larvae (spruce budmoth) were collected from the wild near Sussex in mid June. They were immediately put in test vials and tested at rugulosin concentrations of 10, 50, 100 and 150 μM (75 per concentration). After seven days, surviving larvae were frozen and measured.
# [5] = Breen et al. 1955; cited from earlier work
# [6] = test system: C. fumiferana (spruce budworm) larvae; test: Budworm growth on endophyte-infected nursery trees (mesh bags); type: in vivo, Choristoneura fumiferana; details: four year old trees, branches above and below 0.5 μg g^−1
# Excerpt: disease-free second instar spruce budworm larvae as follows: A set number of budworm were placed by hand on lateral branches with buds and then covered with a mesh screen on both endophyte-positive and negative trees. Temperature recorders were placed in the holding area and the progress monitored until the budworm was not greater than sixth instar. At termination, the insects were collected, frozen for subsequent determinations of head capsule width and frozen weight. Samples were collected for toxin analysis to ensure that there was no misclassification of the trees as to their endophyte status.
# Nursery experiments: The tests were conducted at the J.D. Irving, Limited Sussex Tree Nursery in New Brunswick, Canada (45° 43′ N, 65° 31′ W; elevation 21.30 m). In two successive years, several hundred seedlings grown as container stock in mulitpot 67 seedling containers were inoculated with the rugulosin-producing endophyte 5WS22E1 (DAOM 229536; CBS 120377). […]
# Temperature recorders (Hobo Dataloggers, Onset Computer Corporation, Pocasset, Mass.) were placed in the holding area and the progress monitored until the budworms were not older than sixth instars. […] Head capsule widths were determined using a stereo microscope at 40× with ocular and stage micrometers. […]
# [7] = test system: fruit flies (Drosophila melanogaster); details: Dobias et al. 1980; cited from earlier work
# rats = details: in rats; Ueno et al. 1971; cited from earlier work
# [8] = test system: Gram positive and negative bacteria; details: reported by many authors, e.g. Stark et al. 1978; cited from earlier work
# [9] = test system: HepG2 cells (human hepatoma cells); details: Watts et al. 2003; cited from earlier work
# mice = details: ip in mice; Ueno et al. 1971; cited from earlier work
structure (smiles),measurement,setting,value
Cc1cc(O)c2c(c1)C(=O)[C@]13C(=C2O)C(=O)[C@@H]2[C@H](O)[C@H]1[C@@H]1[C@@H](O)[C@H]3C(=O)C3=C(O)c4c(O)cc(C)cc4C(=O)[C@]312 [rugulosin],toxicity to cultured cells,[1],toxic
same,dietary rugulosin concentration with significantly reduced head capsule,[2],150 µM
same,toxicity to C. fumiferana larvae in needles,spruce budworm larvae,toxic
same,toxicity to cultured cells,[3],toxic
same,"larval weights, controls vs treatment groups by ANOVA (LSD, Tukey)","[4]; 10, 50, 100 and 150 μM rugulosin, seven days",not significantly different
same,effect of rugulosin on wild collected larvae relative to the other insect species,[4]; diet,same order of magnitude
same,dietary concentration reducing body weight and/or affecting instar development,"[4]; in vitro, diet",~50 µM
same,antifungal activity,[5],moderately antifungal
same,Pearson correlation between rugulosin concentration and budworm weight,[6],−0.288
same,dietary toxicity of rugulosin,[7],~50 µM
same,toxicity to Drosophila melanogaster,[7],toxic
same,LD50,rats,44 mg kg^−1 BW
same,antibiotic activity,[8],antibiotic
same,cytotoxicity,[9],not cytotoxic
same,LD50,mice,55 mg kg^−1 BW
